Assay results from patent publication US10597378B2 (priority 2017, dated 2020).
Where two headings read alike, the source gives them in different places.

Target: MOR (Homo sapiens, UniProt P35372)
Assay: cell-based
Set-up: expressed in transfected cells; host or cells: CHO-K1/MOR/Ga15 cells
Conditions: for FLIPR Ca2+ AUC: area under the [Ca2+]i fluorescence response curve, up to 90 s
Protocol: In an exemplary in vitro assay for identifying MOR agonists, cells that express a MOR are treated with a test compound in a cellular calcium fluorescent assay and calcium fluorescence intensity is then measured to determine whether the MOR is activated. A test compound is identified as a MOR agonist if the MOR is activated.
EC50 herein refers to the concentration of a compound that induces a response halfway between the baseline and the maximum after a specified exposure time. AUC refers to the area under the response curve, an indication of the compound's capability of activating a MOR.
One day before the assay, CORNING® black with clear flat bottom 96-well assay plates were coated with a 0.1 mg/mL Poly-L-Lysine solution. CHO-K1/MOR/Ga15 cells were suspended in the F12 medium and plated at a density of about 8×10^4 cells/well in […] medium. Cells were incubated in a humidified atmosphere of 10% CO2 at 37° C. overnight so as to reach an 80-90% confluent cell monolayer before the assay. On the day of the assay, 150 μL medium/well was removed from plate. […] Compounds and other reagents were dissolved in the assay buffer. […] The [Ca^2+]i fluorescence was measured up to 90 s after agonist injection.

[1] = CHO-K1/MOR/Ga15 cells, read-out: FLIPR Ca2+ EC50

Chain of MOR (P35372 whole entry): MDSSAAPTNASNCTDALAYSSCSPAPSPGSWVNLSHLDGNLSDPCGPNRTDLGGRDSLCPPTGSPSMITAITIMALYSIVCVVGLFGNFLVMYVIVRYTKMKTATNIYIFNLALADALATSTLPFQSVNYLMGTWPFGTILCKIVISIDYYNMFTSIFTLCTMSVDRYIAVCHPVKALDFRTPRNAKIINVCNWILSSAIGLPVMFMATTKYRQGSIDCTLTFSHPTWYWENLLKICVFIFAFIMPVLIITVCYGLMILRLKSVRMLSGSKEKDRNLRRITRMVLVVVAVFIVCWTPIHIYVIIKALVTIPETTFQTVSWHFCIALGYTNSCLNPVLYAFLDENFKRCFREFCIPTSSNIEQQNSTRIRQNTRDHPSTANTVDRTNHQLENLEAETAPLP

| EC50 (read-out: FLIPR Ca2+ EC50) [µM] | Structure (SMILES) | EC50 [1] [µM] | FLIPR Ca2+ AUC | EC50 (FLIPR Ca2+ EC50, CHO-K1/MOR/Ga15 cells) [µM] | EC50 [µM] |
| --- | --- | --- | --- | --- | --- |
| – | O=C(NCC1NCCc2ccccc21)C1CCCCC1 (stereo not shown) [Compound 5, N-(1,2,3,4-Tetrahydro-1-isoquinolinylmethyl)cyclohexanecarboxamide] | 6.38 | 6142 | – | – |
| – | O=C(NCC1c2ccccc2CCN1S(=O)(=O)c1ccc(Br)cc1OC(F)(F)F)C1CCCCC1 (stereo not shown) [Compound 6, N-[(2-{[4-Bromo-2-(trifluoromethoxy)phenyl]sulfonyl}-1,2,3,4-tetrahydro-1-isoquinolinyl)methyl]cyclohexanecarboxamide] | 1.12 | 15139 | – | – |
| – | O=C(NCC1c2ccccc2CCN1S(=O)(=O)c1ccc(Br)cc1C(F)(F)F)C1CCCCC1 (stereo not shown) [Compound 7, N-[(2-{[4-Bromo-2-(trifluoromethyl)phenyl]sulfonyl}-1,2,3,4-tetrahydro-1-isoquinolinyl)methyl]cyclohexanecarboxamide] | 2.56 | 7697 | – | – |
| – | Cc1cc(Br)ccc1S(=O)(=O)N1CCc2ccccc2C1CNC(=O)C1CCCCC1 (stereo not shown) [Compound 8, N-({2-[(4-Bromo-2-methylphenyl)sulfonyl]-1,2,3,4-tetrahydro-1-isoquinolinyl}methyl)cyclohexanecarboxamide] | < 10 | 3757 | 6.27 | – |
| – | O=C(NCC1c2ccccc2CCN1S(=O)(=O)c1ccc(Br)cc1)C1CCCCC1 (stereo not shown) [Compound 9, N-({2-[(4-Bromophenyl)sulfonyl]-1,2,3,4-tetrahydro-1-isoquinolinyl}methyl)cyclohexanecarboxamide] | 8.82 | 6103 | – | – |
| – | O=C(NCC1c2ccccc2CCN1S(=O)(=O)c1ccc(Br)cc1Br)C1CCCCC1 (stereo not shown) [Compound 10, N-({2-[(2,4-Dibromophenyl)sulfonyl]-1,2,3,4-tetrahydro-1-isoquinolinyl}methyl)cyclohexanecarboxamide] | 3.31 | 7023 | – | – |
| – | O=C(NCC1c2ccccc2CCN1S(=O)(=O)c1ccc(Br)cc1Cl)C1CCCCC1 (stereo not shown) [Compound 11, N-({2-[(4-Bromo-2-chlorophenyl)sulfonyl]-1,2,3,4-tetrahydro-1-isoquinolinyl}methyl)cyclohexanecarboxamide] | – | 7597 | – | 5.61 |
| – | O=C(NCC1c2ccccc2CCN1S(=O)(=O)c1ccc(Br)cc1F)C1CCCCC1 (stereo not shown) [Compound 12, N-({2-[ (4-Bromo-2-fluorophenyl)sulfonyl]-1,2,3,4-tetrahydro-1-isoquinolinyl}methyl)cyclohexanecarboxamide] | 9.61 | 7271 | – | – |
| – | O=C(NCC1c2ccccc2CCN1S(=O)(=O)c1ccccc1OC(F)(F)F)C1CCCCC1 (stereo not shown) [Compound 13, N-[(2-{[2-(Trifluoromethoxy)phenyl]sulfonyl}-1,2,3,4-tetrahydro-1-isoquinolinyl)methyl]cyclohexanecarboxamide] | 3.31 | 5152 | – | – |
| – | COc1ccccc1S(=O)(=O)N1CCc2ccccc2C1CNC(=O)C1CCCCC1 (stereo not shown) [Compound 14, N-({2-[(2-Methoxyphenyl)sulfonyl]-1,2,3,4-tetrahydro-1-isoquinolinyl}methyl)cyclohexanecarboxamide] | 22.5 | 3327 | – | – |
| – | O=C(NCC1c2ccccc2CCN1S(=O)(=O)c1ccc(F)cc1C(F)(F)F)C1CCCCC1 (stereo not shown) [Compound 15, N-[(2-{[4-Fluoro-2-(trifluoromethyl)phenyl]sulfonyl}-1,2,3,4-tetrahydro-1-isoquinolinyl)methyl]cyclohexanecarboxamide] | 5.88 | 5153 | – | – |
| – | Cc1cc(F)ccc1S(=O)(=O)N1CCc2ccccc2C1CNC(=O)C1CCCCC1 (stereo not shown) [Compound 16, N-({2-[(4-Fluoro-2-methylphenyl)sulfonyl]-1,2,3,4-tetrahydro-1-isoquinolinyl}methyl)cyclohexanecarboxamide] | 10 | 6213 | – | – |
| – | O=C(NCC1c2ccccc2CCN1S(=O)(=O)c1ccc(Cl)cc1)C1CCCCC1 (stereo not shown) [Compound 17, N-({2-[(4-Chlorophenyl)sulfonyl]-1,2,3,4-tetrahydro-1-isoquinolinyl}methyl)cyclohexanecarboxamide] | – | 6144 | – | 5.97 |
| – | Cc1ccc(S(=O)(=O)N2CCc3ccccc3C2CNC(=O)C2CCCCC2)cc1 (stereo not shown) [Compound 18, N-({2-[(4-Methylphenyl)sulfonyl]-1,2,3,4-tetrahydro-1-isoquinolinyl}methyl)cyclohexanecarboxamide] | – | 6808 | – | 6.44 |
| – | COc1ccc(S(=O)(=O)N2CCc3ccccc3C2CNC(=O)C2CCCCC2)cc1 (stereo not shown) [Compound 19, N-({2-[(4-Methoxyphenyl)sulfonyl]-1,2,3,4-tetrahydro-1-isoquinolinyl}methyl)cyclohexanecarboxamide] | 7.84 | 3418 | – | – |
| – | CC1CCC(C(=O)NCC2c3ccccc3CCN2S(=O)(=O)c2ccc(Br)cc2OC(F)(F)F)CC1 (stereo not shown) [Compound 20, N-[(2-{[4-Bromo-2-(trifluoromethoxy)phenyl]sulfonyl}-1,2,3,4-tetrahydro-1-isoquinolinyl)methyl]-4-methylcyclohexanecarboxamide] | 0.97 | – | – | – |

| EC50 (read-out: FLIPR Ca2+ EC50) [µM] | Structure (SMILES) | EC50 [1] [µM] | FLIPR Ca2+ AUC | EC50 (FLIPR Ca2+ EC50, CHO-K1/MOR/Ga15 cells) [µM] | EC50 [µM] |
| --- | --- | --- | --- | --- | --- |
| – | O=C(NCC1c2ccccc2CCN1S(=O)(=O)c1ccc(Br)cc1OC(F)(F)F)C1CCCC1 (stereo not shown) [Compound 21, N-[(2-{[4-Bromo-2-(trifluoromethoxy)phenyl]sulfonyl}-1,2,3,4-tetrahydro-1-isoquinolinyl)methyl]cyclopentanecarboxamide] | 0.81 | – | – | – |
| – | O=C(NCC1c2ccccc2CCN1S(=O)(=O)c1ccc(Br)cc1OC(F)(F)F)c1ccccc1 (stereo not shown) [Compound 24, N-[(2-{[4-Bromo-2-(trifluoromethoxy)phenyl]sulfonyl}-1,2,3,4-tetrahydro-1-isoquinolinyl)methyl]benzamide] | 5.62 | 9294 | – | – |
| – | O=C(NCC1c2ccccc2CCN1S(=O)(=O)c1ccc(Br)cc1OC(F)(F)F)N1CCCCC1 (stereo not shown) [Compound 25, N-[(2-{[4-Bromo-2-(trifluoromethoxy)phenyl]sulfonyl}-1,2,3,4-tetrahydro-1-isoquinolinyl)methyl]-1-piperidinecarboxamide] | 2.77 | 10498 | – | – |
| – | O=C(NCC1c2ccccc2CCN1S(=O)(=O)c1ccc(Br)cc1OC(F)(F)F)N1CCCC1 (stereo not shown) [Compound 26, N-[(2-{[4-Bromo-2-(trifluoromethoxy)phenyl]sulfonyl}-1,2,3,4-tetrahydro-1-isoquinolinyl)methyl]-1-pyrrolidinecarboxamide] | 4.34 | 12484 | – | – |
| – | O=C(NCC1c2ccccc2CCN1S(=O)(=O)c1ccc(Br)cc1OC(F)(F)F)C1CCC1 (stereo not shown) [Compound 27, N-[(2-{[4-Bromo-2-(trifluoromethoxy)phenyl]sulfonyl}-1,2,3,4-tetrahydro-1-isoquinolinyl)methyl]cyclobutanecarboxamide] | 1.34 | 13461 | – | – |
| – | O=C(NCC1c2ccccc2CCN1S(=O)(=O)c1ccc(Br)cc1OC(F)(F)F)C1CC1 (stereo not shown) [Compound 28, N-[(2-{[4-Bromo-2-(trifluoromethoxy)phenyl]sulfonyl}-1,2,3,4-tetrahydro-1-isoquinolinyl)methyl]cyclopropanecarboxamide] | 5.03 | 11880 | – | – |
| – | CC(C)(C)C(=O)NCC1c2ccccc2CCN1S(=O)(=O)c1ccc(Br)cc1OC(F)(F)F (stereo not shown) [Compound 29, N-[(2-{[4-Bromo-2-(trifluoromethoxy)phenyl]sulfonyl}-1,2,3,4-tetrahydro-1-isoquinolinyl)methyl]-2,2-dimethylpropanamide] | 4.61 | 12780 | – | – |
| – | O=C(NCC1NCCc2ccccc21)N1CCCCC1 (stereo not shown) [Compound 35, N-(1,2,3,4-Tetrahydro-1-isoquinolinylmethyl)-1-piperidinecarboxamide] | 3.31 | – | – | – |
| – | O=C(NCC1NCCc2ccccc21)N1CCOCC1 (stereo not shown) [Compound 36, N-(1,2,3,4-Tetrahydro-1-isoquinolinylmethyl)-4-morpholinecarboxamide] | 8.08 | – | – | – |
| – | O=C(NCC1NCCc2ccccc21)N1CCCC1 (stereo not shown) [Compound 37, N-(1,2,3,4-Tetrahydro-1-isoquinolinylmethyl)-1-pyrrolidinecarboxamide] | 4.02 | 3480 | – | – |
| 0.14 | Cc1ccc(C(=O)NCC2NCCc3ccccc32)cc1 (stereo not shown) [Compound 38, 4-Methyl-N-(1,2,3,4-tetrahydro-1-isoquinolinylmethyl)benzamide] | – | – | – | – |
| – | CC1CCC(C(=O)NCC2NCCc3ccccc32)CC1 (stereo not shown) [Compound 39, 4-Methyl-N-(1,2,3,4-tetrahydro-1-isoquinolinylmethyl)cyclohexanecarboxamide] | 1.53 | 12657 | – | – |
| – | CCC1CCC(C(=O)NCC2NCCc3ccccc32)CC1 (stereo not shown) [Compound 40, 4-Ethyl-N-(1,2,3,4-tetrahydro-1-isoquinolinylmethyl)cyclohexanecarboxamide] | 1.12 | 10059 | – | – |
| – | CC1CCCCC1C(=O)NCC1NCCc2ccccc21 (stereo not shown) [Compound 41, 2-Methyl-N-(1,2,3,4-tetrahydro-1-isoquinolinylmethyl)cyclohexanecarboxamide] | 10 | 5627 | – | – |
| – | COC1CCC(C(=O)NCC2NCCc3ccccc32)CC1 (stereo not shown) [Compound 42, 4-Methoxy-N-(1,2,3,4-tetrahydro-1-isoquinolinylmethyl)cyclohexanecarboxamide] | 6.6 | 5538 | – | – |
